Values after ≈ are worked out from the molar mass of the structure shown.
Columns and labels:
HepG2 [1] = experiment: Cytotoxicity against human HepG2 cells incubated for 6 hrs by MTT assay; format: functional, cell-based; details: HepG2, 6 h
Staphylococcus aureus = experiment: Antibacterial activity against Staphylococcus aureus ATCC 25923 assessed as reduction in bacterial cell growth incubated for 24 hrs by two fold serial dilution; format: functional; details: ATCC 25923, 24 h
Pseudomonas aeruginosa = experiment: Antibacterial activity against Pseudomonas aeruginosa ATCC 27853 assessed as reduction in bacterial cell growth incubated for 24 hrs by two fold serial dilution; format: functional; details: ATCC 27853, 24 h
HepG2 [2] = experiment: Cytotoxicity against human HepG2 cells assessed as cell membrane leakage by measuring LDH released incubated for 6 hrs by spectrophotometry; format: functional; details: HepG2, 6 h
Escherichia coli = experiment: Antibacterial activity against Escherichia coli ATCC 25922 assessed as reduction in bacterial cell growth incubated for 24 hrs by two fold serial dilution; format: functional; details: ATCC 25922, 24 h
Bacillus subtilis = experiment: Antibacterial activity against Bacillus subtilis ATCC 6051 assessed as reduction in bacterial cell growth incubated for 24 hrs by two fold serial dilution; format: functional; details: ATCC 6051, 24 h
[3] = tested on: Mycobacterium tuberculosis; experiment: Antimycobacterial activity against Mycobacterium tuberculosis H37Rv assessed as reduction in bacterial cell growth incubated for 14 days by broth dilution method; format: functional; details: 336 h
[4] = tested on: Mycobacteroides abscessus; experiment: Antimycobacterial activity against Mycobacterium abscessus ATCC 19977 assessed as reduction in bacterial cell growth incubated for 3 days by broth dilution method; format: functional; details: ATCC 19977, 72 h

Row | Compound | IC50 (HepG2 [1]) [µg/mL] | MIC (Staphylococcus aureus) [µg/mL] | MIC (Pseudomonas aeruginosa) [µg/mL] | MCC (HepG2 [2]) [µg/mL] | MIC (Escherichia coli) [µg/mL] | MIC (Bacillus subtilis) [µg/mL] | MIC [3] [µg/mL] | MIC [4] [µg/mL]
1 | CS(=N)(=O)c1ccccc1 (configuration not stated) | > 100 | > 512 | > 512 | 100 | > 512 | > 512 |  | 
2 | Cc1ccc(S(=O)(=NSC(F)(F)F)N2CCCC2)cc1 (configuration not stated) |  | 64 (≈ 197 µM) | > 512 |  | > 512 | 32 (≈ 98.6 µM) |  | 
3 | O=S(=NSC(F)(F)F)(c1ccccc1)N1CCCC1 (configuration not stated) | 15 (≈ 48.3 µM) | 32 (≈ 103 µM) | 512 (≈ 1650 µM) | 0.1 | 128 (≈ 412 µM) | 8 (≈ 25.8 µM) | 4 to 8 (≈ 12.9 to 25.8 µM) | > 64
4 | CCN(CC)S(=O)(=NSC(F)(F)F)c1ccc([N+](=O)[O-])cc1 (configuration not stated) |  | 32 to 64 (≈ 89.5 to 179 µM) | > 512 |  |  | 16 to 32 (≈ 44.8 to 89.5 µM) | 16 to 32 (≈ 44.8 to 89.5 µM) | 16 to 32 (≈ 44.8 to 89.5 µM)
5 | O=S(=NSC(F)(F)F)(c1ccccc1)c1ccccc1 | 90 (≈ 284 µM) | 32 (≈ 101 µM) | 256 (≈ 807 µM) | 1 | 256 (≈ 807 µM) | 16 (≈ 50.4 µM) | 4 to 8 (≈ 12.6 to 25.2 µM) | > 64
6 | Cc1ccc(S(=O)(=NSC(F)(F)F)N2CCCCC2)cc1 (configuration not stated) | 65 (≈ 192 µM) |  |  | 0.1 |  |  | 4 to 8 (≈ 11.8 to 23.6 µM) | > 64
7 | CS(=O)(=NSC(F)(F)F)c1ccccc1 (configuration not stated) | 15 (≈ 58.8 µM) | 16 (≈ 62.7 µM) | 128 (≈ 501 µM) | 0.1 | 16 (≈ 62.7 µM) | 16 (≈ 62.7 µM) | 4 to 8 (≈ 15.7 to 31.3 µM) | > 64
8 | O=[N+]([O-])c1ccc(S(=O)(=NSC(F)(F)F)N2CCCC2)cc1 (configuration not stated) |  | 32 (≈ 90 µM) | > 512 |  | > 512 | 64 (≈ 180 µM) | 16 to 32 (≈ 45 to 90 µM) | 16 to 32 (≈ 45 to 90 µM)
9 | O=S(=NSC(F)(F)F)(c1ccccc1)N1CCOCC1 (configuration not stated) |  | 32 (≈ 98 µM) | 256 (≈ 784 µM) |  | 128 (≈ 392 µM) | 32 (≈ 98 µM) |  | 
10 | N=S(=O)(c1ccc([N+](=O)[O-])cc1)N1CCCC1 (configuration not stated) |  |  |  |  |  |  | > 64 | > 64
11 | O=[N+]([O-])c1ccc(S(=O)(=NSC(F)(F)F)N2CCOCC2)cc1 (configuration not stated) |  | 128 to 256 (≈ 345 to 689 µM) | 256 (≈ 689 µM) |  | 128 to 256 (≈ 345 to 689 µM) | 128 to 256 (≈ 345 to 689 µM) | 16 to 32 (≈ 43.1 to 86.2 µM) | 32 to 64 (≈ 86.2 to 172 µM)
12 | Cc1ccc(S(=O)(=NSC(F)(F)F)N2CCOCC2)cc1 (configuration not stated) |  |  |  |  |  |  | 8 to 16 (≈ 23.5 to 47 µM) | 16 to 32 (≈ 47 to 94 µM)
13 | CS(=O)(=NC(F)(F)F)c1ccccc1 (configuration not stated) | > 200 | > 512 | > 512 |  | > 512 | > 512 | > 64 | 
14 | O=[N+]([O-])c1ccc(S(=O)(=NSC(F)(F)F)N2CCCCC2)cc1 (configuration not stated) |  | 32 (≈ 86.6 µM) |  |  |  | 64 (≈ 173 µM) | > 64 | 32 to 64 (≈ 86.6 to 173 µM)
15 | N=S(=O)(c1ccccc1)N1CCOCC1 (configuration not stated) |  |  |  |  |  |  | > 64 | > 64
16 | O=S(=NC(F)(F)F)(c1ccccc1)c1ccccc1 | 200 (≈ 701 µM) | > 512 | > 512 | 200 | > 512 | > 512 | > 64 | 

— ChEMBL document CHEMBL4304836, “N-Trifluoromethylthiolated Sulfonimidamides and Sulfoximines: Anti-microbial, Anti-mycobacterial, and Cytotoxic Activity” (ACS Med Chem Lett, 2019)
